Experimental data reported in ChEMBL document CHEMBL1148870, “Novel inhibitors of VEGF receptors-1 and -2 based on azole-5-carboxamide templates” (Bioorg Med Chem Lett, 2007).
Activity calls are given as the source filed them. The rule behind the calls is not given here.

What was measured:
[1] = target: Vascular endothelial growth factor receptor 3 (Homo sapiens) (UniProt P35916); test: Inhibition of Flt4 at 10 uM; parameters: scale not given: the % may be the effect or the level left
[2] = target: Insulin-like growth factor 1 receptor (Homo sapiens) (UniProt P08069); test: Inhibition of IGF1R at 10 uM; parameters: scale not given: the % may be the effect or the level left
[3] = target: Receptor-type tyrosine-protein kinase FLT3 (Homo sapiens) (UniProt P36888); test: Inhibition of Flt3 at 10 uM; parameters: scale not given: the % may be the effect or the level left
[4] = species: Homo sapiens; test: Inhibition of bcr-Abl at 10 uM; parameters: scale not given: the % may be the effect or the level left
[5] = species: Homo sapiens; test: Inhibition of PKA at 10 uM; parameters: scale not given: the % may be the effect or the level left
[6] = species: Homo sapiens; test: Inhibition of Cdk1 at 10 uM; parameters: scale not given: the % may be the effect or the level left
[7] = target: Glycogen synthase kinase-3 beta (Homo sapiens) (UniProt P49841); test: Inhibition of GSK3-beta at 10 uM; parameters: scale not given: the % may be the effect or the level left
[8] = tested on: Caco-2; test: Passive diffusion assessed as absorption potential across Caco-2 cell membrane; assay type: ADME, cell-based; conditions: human
[9] = Passive diffusion assessed as intrinsic permeability across Caco-2 cell membrane; assay type: ADME, cell-based; conditions: human, read-out: permeability (converted)
[10] = target: Fibroblast growth factor receptor 1 (Homo sapiens) (UniProt P11362); test: Inhibition of FGFR1 at 10 uM; parameters: scale not given: the % may be the effect or the level left
[11] = species: Homo sapiens; test: Inhibition of InR at 10 uM; parameters: scale not given: the % may be the effect or the level left
[12] = target: RAC-alpha serine/threonine-protein kinase (Homo sapiens) (UniProt P31749); test: Inhibition of PKB/Akt at 10 uM; parameters: scale not given: the % may be the effect or the level left
[13] = target: Cyclin-dependent kinase 2 (Homo sapiens) (UniProt P24941); test: Inhibition of Cdk2 at 10 uM; parameters: scale not given: the % may be the effect or the level left
[14] = target: RAF proto-oncogene serine/threonine-protein kinase (Homo sapiens) (UniProt P04049); test: Inhibition of Raf1 at 10 uM; parameters: scale not given: the % may be the effect or the level left
[15] = target: T1, Vascular endothelial growth factor receptor 2 (Homo sapiens, UniProt P35968); test: Inhibition of VEGFR2 assessed as inhibition of phosphorylation in presence of 2 uM ATP by HTRF assay; assay type: functional
[16] = target: Vascular endothelial growth factor receptor 1 (Homo sapiens, UniProt P17948); test: Inhibition of VEGFR1 assessed as inhibition of phosphorylation in presence of 2 uM ATP by HTRF assay; assay type: functional
[17] = target: Epidermal growth factor receptor (Homo sapiens) (UniProt P00533); test: Inhibition of ErbB1 at 10 uM; parameters: scale not given: the % may be the effect or the level left
[18] = target: T1, Vascular endothelial growth factor receptor 2; test: Displacement of [32P]ATP from human VEGFR2 after 45 mins
[19] = target: Hepatocyte growth factor receptor (Homo sapiens) (UniProt P08581); test: Inhibition of cMet at 10 uM; parameters: scale not given: the % may be the effect or the level left
[20] = target: Receptor tyrosine-protein kinase erbB-2 (Homo sapiens) (UniProt P04626); test: Inhibition of ErbB2/Her2 at 10 uM; parameters: scale not given: the % may be the effect or the level left
[21] = target: T1, Vascular endothelial growth factor receptor 2; test: Inhibition of VEGFR2 assessed as inhibition of phosphorylation in human 293 cells by cell-based ELISA; assay type: functional, HEK293
[22] = tested on: DLD-1; test: Cytotoxicity against human DLD1 cells after 24 hrs; assay type: functional; conditions: DLD-1, 24 h
[23] = tested on: DU-145; test: Cytotoxicity against human DU145 cells after 24 hrs; assay type: functional; conditions: DU-145, 24 h
[24] = tested on: A-431; test: Cytotoxicity against human A431 cells after 24 hrs; assay type: functional; conditions: A-431, 24 h
[25] = tested on: HEK293; test: Cytotoxicity against HEK293 cells after 24 hrs; assay type: functional, cell-based; conditions: Homo sapiens

Chain of Receptor tyrosine-protein kinase erbB-2 (Homo sapiens) (P04626 whole entry): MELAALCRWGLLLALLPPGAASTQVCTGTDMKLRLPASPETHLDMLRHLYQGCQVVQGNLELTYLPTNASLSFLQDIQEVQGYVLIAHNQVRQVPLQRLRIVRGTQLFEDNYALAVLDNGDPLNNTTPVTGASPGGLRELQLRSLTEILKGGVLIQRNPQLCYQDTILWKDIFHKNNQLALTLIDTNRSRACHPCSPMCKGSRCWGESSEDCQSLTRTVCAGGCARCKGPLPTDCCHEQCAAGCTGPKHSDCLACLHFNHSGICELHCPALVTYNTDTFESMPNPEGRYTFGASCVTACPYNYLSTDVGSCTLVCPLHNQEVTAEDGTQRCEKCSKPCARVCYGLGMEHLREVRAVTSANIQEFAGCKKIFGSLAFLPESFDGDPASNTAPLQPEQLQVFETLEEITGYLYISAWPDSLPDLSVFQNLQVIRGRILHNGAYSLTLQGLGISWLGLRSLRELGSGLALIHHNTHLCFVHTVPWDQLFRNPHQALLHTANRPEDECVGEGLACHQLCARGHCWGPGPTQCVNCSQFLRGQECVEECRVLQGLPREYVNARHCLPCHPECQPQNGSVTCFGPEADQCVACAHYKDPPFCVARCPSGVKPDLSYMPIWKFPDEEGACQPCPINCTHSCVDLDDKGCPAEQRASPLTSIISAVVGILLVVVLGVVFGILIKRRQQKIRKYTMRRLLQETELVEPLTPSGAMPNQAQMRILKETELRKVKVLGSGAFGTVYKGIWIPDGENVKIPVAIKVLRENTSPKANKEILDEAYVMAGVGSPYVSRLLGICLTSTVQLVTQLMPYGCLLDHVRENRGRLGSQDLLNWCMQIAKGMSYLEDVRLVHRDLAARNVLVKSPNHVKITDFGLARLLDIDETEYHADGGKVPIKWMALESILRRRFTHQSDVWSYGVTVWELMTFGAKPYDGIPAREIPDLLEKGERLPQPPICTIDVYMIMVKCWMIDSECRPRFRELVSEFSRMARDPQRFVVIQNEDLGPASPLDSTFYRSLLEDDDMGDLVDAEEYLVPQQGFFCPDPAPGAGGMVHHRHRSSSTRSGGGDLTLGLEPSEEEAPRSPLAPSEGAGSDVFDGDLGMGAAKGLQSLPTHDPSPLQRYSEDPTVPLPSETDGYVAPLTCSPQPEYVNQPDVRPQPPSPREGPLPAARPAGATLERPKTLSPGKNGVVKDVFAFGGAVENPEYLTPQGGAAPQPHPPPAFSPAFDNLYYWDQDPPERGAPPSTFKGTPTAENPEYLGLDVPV
Chain of RAC-alpha serine/threonine-protein kinase (Homo sapiens) (P31749 whole entry): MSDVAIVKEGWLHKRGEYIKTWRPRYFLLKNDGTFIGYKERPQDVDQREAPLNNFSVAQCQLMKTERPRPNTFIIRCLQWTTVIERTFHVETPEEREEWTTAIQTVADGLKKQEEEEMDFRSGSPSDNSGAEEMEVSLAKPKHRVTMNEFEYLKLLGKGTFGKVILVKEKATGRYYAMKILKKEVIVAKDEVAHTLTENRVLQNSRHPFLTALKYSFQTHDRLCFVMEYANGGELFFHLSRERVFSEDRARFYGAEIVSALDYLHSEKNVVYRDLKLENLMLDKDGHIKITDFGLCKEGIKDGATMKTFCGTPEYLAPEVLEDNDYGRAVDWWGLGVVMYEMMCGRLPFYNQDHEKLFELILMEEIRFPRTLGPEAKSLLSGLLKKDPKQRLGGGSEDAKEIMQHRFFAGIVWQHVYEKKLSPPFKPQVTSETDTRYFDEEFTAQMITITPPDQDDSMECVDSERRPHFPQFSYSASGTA
T1 sequence (P35968 whole entry): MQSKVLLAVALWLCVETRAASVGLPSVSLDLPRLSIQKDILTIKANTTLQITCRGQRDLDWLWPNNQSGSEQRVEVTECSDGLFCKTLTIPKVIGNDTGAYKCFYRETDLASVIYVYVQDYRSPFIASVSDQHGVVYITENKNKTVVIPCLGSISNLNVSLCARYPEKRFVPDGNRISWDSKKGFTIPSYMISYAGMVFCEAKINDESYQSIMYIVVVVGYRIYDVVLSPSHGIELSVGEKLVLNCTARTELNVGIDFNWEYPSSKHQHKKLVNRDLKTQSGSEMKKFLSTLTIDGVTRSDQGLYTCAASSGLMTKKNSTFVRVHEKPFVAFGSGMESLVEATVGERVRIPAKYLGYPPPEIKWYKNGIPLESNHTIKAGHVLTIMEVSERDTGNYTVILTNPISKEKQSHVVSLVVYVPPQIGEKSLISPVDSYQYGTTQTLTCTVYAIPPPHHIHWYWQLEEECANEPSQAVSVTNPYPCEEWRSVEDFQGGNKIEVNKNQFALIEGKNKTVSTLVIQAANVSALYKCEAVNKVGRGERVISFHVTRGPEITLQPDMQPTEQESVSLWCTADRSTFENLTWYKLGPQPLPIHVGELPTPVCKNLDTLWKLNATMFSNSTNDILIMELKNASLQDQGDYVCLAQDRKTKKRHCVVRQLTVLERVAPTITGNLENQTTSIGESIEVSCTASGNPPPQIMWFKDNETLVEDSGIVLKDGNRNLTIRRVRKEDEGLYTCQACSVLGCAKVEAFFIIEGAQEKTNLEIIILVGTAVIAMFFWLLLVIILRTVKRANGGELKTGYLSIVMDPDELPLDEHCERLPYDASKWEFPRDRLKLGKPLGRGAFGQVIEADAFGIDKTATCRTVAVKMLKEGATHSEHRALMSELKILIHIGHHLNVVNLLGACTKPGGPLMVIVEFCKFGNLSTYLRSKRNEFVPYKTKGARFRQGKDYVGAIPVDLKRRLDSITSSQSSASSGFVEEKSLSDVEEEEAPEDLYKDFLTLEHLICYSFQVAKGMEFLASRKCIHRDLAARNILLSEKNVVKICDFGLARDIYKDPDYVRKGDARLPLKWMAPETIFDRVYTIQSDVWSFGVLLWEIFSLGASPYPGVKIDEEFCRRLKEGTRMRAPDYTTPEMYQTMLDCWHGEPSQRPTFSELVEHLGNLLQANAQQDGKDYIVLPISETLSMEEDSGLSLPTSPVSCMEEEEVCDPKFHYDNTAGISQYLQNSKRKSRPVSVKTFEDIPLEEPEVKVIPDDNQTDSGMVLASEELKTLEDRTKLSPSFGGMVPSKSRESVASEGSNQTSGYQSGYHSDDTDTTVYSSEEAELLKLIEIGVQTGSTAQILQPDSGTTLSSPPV
Chain of Hepatocyte growth factor receptor (Homo sapiens) (P08581 whole entry): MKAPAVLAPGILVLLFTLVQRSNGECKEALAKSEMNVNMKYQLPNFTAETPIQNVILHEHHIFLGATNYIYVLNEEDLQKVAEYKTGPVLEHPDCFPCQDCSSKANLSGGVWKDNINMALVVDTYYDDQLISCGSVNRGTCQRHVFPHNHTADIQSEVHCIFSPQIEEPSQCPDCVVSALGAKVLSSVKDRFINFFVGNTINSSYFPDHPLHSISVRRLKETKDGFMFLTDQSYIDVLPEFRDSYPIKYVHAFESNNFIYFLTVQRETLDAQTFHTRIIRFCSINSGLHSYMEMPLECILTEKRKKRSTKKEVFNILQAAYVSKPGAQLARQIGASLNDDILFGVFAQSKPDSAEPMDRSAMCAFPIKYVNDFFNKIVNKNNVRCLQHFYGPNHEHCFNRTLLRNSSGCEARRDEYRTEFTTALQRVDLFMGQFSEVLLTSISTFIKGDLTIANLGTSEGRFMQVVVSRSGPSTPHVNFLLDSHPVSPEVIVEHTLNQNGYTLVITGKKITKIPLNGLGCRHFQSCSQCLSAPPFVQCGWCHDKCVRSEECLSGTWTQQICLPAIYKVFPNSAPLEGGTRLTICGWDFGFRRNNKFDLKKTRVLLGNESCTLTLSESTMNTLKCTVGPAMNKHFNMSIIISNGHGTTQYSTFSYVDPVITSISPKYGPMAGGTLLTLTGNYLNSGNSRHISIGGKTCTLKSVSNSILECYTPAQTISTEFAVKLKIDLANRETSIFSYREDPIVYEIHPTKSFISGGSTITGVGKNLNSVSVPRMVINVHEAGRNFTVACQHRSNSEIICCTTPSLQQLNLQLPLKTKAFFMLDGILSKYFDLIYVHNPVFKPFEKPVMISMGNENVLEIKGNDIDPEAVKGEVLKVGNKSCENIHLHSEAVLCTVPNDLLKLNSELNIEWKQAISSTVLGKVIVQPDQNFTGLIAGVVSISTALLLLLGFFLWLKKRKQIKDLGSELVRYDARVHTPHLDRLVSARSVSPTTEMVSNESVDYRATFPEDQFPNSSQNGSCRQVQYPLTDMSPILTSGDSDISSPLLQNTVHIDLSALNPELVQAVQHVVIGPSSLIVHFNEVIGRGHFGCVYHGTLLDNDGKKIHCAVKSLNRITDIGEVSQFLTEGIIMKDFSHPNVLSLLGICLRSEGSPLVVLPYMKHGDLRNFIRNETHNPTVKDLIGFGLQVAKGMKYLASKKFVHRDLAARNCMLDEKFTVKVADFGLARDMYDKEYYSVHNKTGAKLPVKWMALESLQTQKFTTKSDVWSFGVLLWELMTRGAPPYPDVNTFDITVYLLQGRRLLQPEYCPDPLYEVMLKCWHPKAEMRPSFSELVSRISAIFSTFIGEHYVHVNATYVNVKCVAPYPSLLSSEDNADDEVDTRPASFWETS
Chain of RAF proto-oncogene serine/threonine-protein kinase (Homo sapiens) (P04049 whole entry): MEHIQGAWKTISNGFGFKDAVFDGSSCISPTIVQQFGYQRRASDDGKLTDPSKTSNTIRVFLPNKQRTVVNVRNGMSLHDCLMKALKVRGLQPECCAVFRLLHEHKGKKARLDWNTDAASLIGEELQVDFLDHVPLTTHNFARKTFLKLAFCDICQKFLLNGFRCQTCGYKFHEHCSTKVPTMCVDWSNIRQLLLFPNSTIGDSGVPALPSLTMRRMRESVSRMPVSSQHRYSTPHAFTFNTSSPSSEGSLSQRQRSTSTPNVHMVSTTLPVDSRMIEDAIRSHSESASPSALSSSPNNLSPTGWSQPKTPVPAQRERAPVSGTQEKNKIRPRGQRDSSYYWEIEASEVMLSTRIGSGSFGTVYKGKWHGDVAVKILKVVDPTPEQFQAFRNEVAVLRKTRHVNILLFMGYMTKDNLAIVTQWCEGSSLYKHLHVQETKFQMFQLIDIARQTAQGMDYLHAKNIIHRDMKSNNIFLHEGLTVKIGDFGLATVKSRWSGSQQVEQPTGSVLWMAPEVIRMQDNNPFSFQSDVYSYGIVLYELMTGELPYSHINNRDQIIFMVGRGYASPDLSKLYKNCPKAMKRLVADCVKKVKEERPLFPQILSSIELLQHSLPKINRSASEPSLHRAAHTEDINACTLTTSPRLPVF

Structure (SMILES) | Activity [1] | Activity [2] | Activity [3] | Activity [4] | Activity [5] | Activity [6] | Activity [7] | Activity [8] | Papp [9] | Activity [10] | Activity [11] | Activity [12] | Activity [13] | Activity [14] | IC50 [15] | IC50 [16] | Activity [17] | Activity [19] | Activity [20] | IC50 [21] | also measured
O=C(Nc1ccc(Cl)cc1)c1ccnn1CCc1ccncc1 | > 30% | > 30% | > 30% | > 30% | > 30% | > 30% | > 30% | Active | 6.95 ×10⁻⁶ cm/s | > 30% | > 30% | > 30% | > 30% | > 30% | 77 nM | 97 nM | < 30% | > 30% | > 30% | 90 nM | Ki [15]: 110 nM; Ki [18]: 90 nM
CC(C)c1ccc(NC(=O)c2ccnn2CCc2ccncc2)cc1 | > 30% | > 30% | > 30% | > 30% | > 30% | > 30% | > 30% | Active | 8.18 ×10⁻⁶ cm/s | > 30% | > 30% | > 30% | > 30% | > 30% | 74 nM | 440 nM | < 30% | > 30% | > 30% | 53 nM | 
CC(C)(C)c1ccc(NC(=O)c2ccnn2CCc2ccncc2)cc1 | > 30% | > 30% | > 30% | > 30% | > 30% | > 30% | > 30% | Active | 7.43 ×10⁻⁶ cm/s | > 30% | > 30% | > 30% | > 30% | > 30% | 42 nM | 590 nM | < 30% | > 30% | > 30% | 33 nM | Ki [15]: 130 nM; Ki [18]: 140 nM
O=C(Nc1cccc(OC(F)(F)Cl)c1)c1ccnn1CCc1ccncc1 | > 30% | > 30% | > 30% | > 30% | > 30% | > 30% | > 30% | Active | 4.73 ×10⁻⁶ cm/s | > 30% | > 30% | > 30% | > 30% | > 30% |  | 320 nM | < 30% | > 30% | > 30% | 21 nM | Ki [15]: 70 nM; Ki [18]: 90 nM
O=C(Nc1ccc(OC(F)(F)F)cc1)c1ccnn1CCc1ccncc1 | > 30% | > 30% | > 30% | > 30% | > 30% | > 30% | > 30% | Active | 7.03 ×10⁻⁶ cm/s | > 30% | > 30% | > 30% | > 30% | > 30% | 28 nM | 190 nM | < 30% | > 30% | > 30% | 18 nM | Ki [15]: 90 nM; Ki [18]: 80 nM
CCc1ccc(NC(=O)c2ccnn2CCc2ccncc2)cc1 | > 30% | > 30% | > 30% | > 30% | > 30% | > 30% | > 30% | Active | 9.7 ×10⁻⁶ cm/s | > 30% | > 30% | > 30% | > 30% | > 30% | 120 nM | 220 nM | < 30% | > 30% | > 30% | 86 nM | 
O=C(Nc1ccc(C(F)(F)F)cc1)c1ccnn1CCc1ccncc1 | > 30% | > 30% | > 30% | > 30% | > 30% | > 30% | > 30% | Active | 6.42 ×10⁻⁶ cm/s | > 30% | > 30% | > 30% | > 30% | > 30% | 69 nM | 380 nM | < 30% | > 30% | > 30% | 48 nM | 
O=C(Nc1ccc(Cl)cc1)c1ccnn1CCc1ccc(F)c(F)c1 | > 30% | > 30% | > 30% | > 30% | > 30% | > 30% | > 30% |  |  | > 30% | > 30% | > 30% | > 30% | > 30% | > 10000 nM | > 10000 nM | < 30% | > 30% | > 30% | > 10000 nM | 
O=C(Nc1ccc(C(F)(F)F)cc1)c1nccn1CCc1ccncc1 | > 30% | > 30% | > 30% | > 30% | > 30% | > 30% | > 30% |  |  | > 30% | > 30% | > 30% | > 30% | > 30% | 470 nM | 790 nM | < 30% | > 30% | > 30% | 1660 nM | 
Cc1cc(C(=O)Nc2ccc(Cl)cc2)n(CCc2ccncc2)n1 | > 30% | > 30% | > 30% | > 30% | > 30% | > 30% | > 30% |  |  | > 30% | > 30% | > 30% | > 30% | > 30% | 780 nM | 1220 nM | < 30% | > 30% | > 30% | 2540 nM | 
O=C(Nc1ccc(Cl)cc1)c1ccnn1CCc1c[nH]cn1 | > 30% | > 30% | > 30% | > 30% | > 30% | > 30% | > 30% |  |  | > 30% | > 30% | > 30% | > 30% | > 30% | > 10000 nM | > 10000 nM | < 30% | > 30% | > 30% | > 10000 nM | 
Cc1nn(CCc2ccncc2)c(C(=O)Nc2ccc(OC(F)(F)F)cc2)c1C | > 30% | > 30% | > 30% | > 30% | > 30% | > 30% | > 30% |  |  | > 30% | > 30% | > 30% | > 30% | > 30% | > 10000 nM | > 10000 nM | < 30% | > 30% | > 30% | > 10000 nM | 
COc1ccc(NC(=O)c2ccnn2CCc2ccncc2)cc1OC | > 30% | > 30% | > 30% | > 30% | > 30% | > 30% | > 30% |  |  | > 30% | > 30% | > 30% | > 30% | > 30% | 440 nM | 1230 nM | < 30% | > 30% | > 30% | 90 nM | GI50 [22]: 125 nM; GI50 [23]: 220 nM; GI50 [24]: 50 nM; Activity [25]: Active
O=C(Nc1ccc(C(F)(F)F)c(Cl)c1)c1ccnn1CCc1ccncc1 | > 30% | > 30% | > 30% | > 30% | > 30% | > 30% | > 30% | Active | 4.6 ×10⁻⁶ cm/s | > 30% | > 30% | > 30% | > 30% | > 30% | 180 nM | 980 nM | < 30% | > 30% | > 30% | 95 nM | Ki [15]: 170 nM; Ki [18]: 160 nM
